Experimental data: the supplement of paper PMC10307832

compound: COc1cc(Nc2ncc(F)c(Nc3ccc4c(n3)NC(=O)C(C)(C)O4)n2)cc(OC)c1OC [R406] + O=C(c1cc(Cc2n[nH]c(=O)c3ccccc23)ccc1F)N1CCN(C(=O)C2CC2)CC1 [Olaparib] (partner 8 µM); experiment: relative viability (nuclei count vs DMSO), 5 days (fraction); higher = more cells survive; details: first compound 0.253 µM
Method in brief: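 Lung cancer cell lines in 1536-well plates were dosed by pin tool the day after seeding, either with one drug alone or with a fixed anchor-drug dose plus five library-drug doses (not always all listed) in √10 steps. After 5 days, cells were fixed and their nuclei stained in one step (final 0.05% Triton X-100, 1% formaldehyde, 1 ug/ml Hoechst), then counted on 4× images. Relative viability is the nuclei count in treated wells divided by that in vehicle wells. Values are medians of duplicate plates.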

Row | Cell Line | relative viability
1 | NCI-H520 | 0.34
2 | SW 1573 | 0.57
3 | NCI-H1299 | 0.986
4 | CAL-12T | 0.746
5 | NCI-H2228 | 0.731
6 | NCI-H2023 | 0.49
7 | NCI-H1648 | 1.06
8 | SK-LU-1 | 0.44
9 | NCI-H661 | 0.783

same assay, conditions: first compound 0.8 µM

Row | Cell Line | relative viability
10 | NCI-H522 | 0.713
11 | NCI-H2342 | 0.447
12 | NCI-H838 | 0.908
13 | NCI-H1650 | 0.798
14 | EBC-1 | 0.843
15 | NCI-H1703 | 0.355
16 | NCI-H1993 | 1.07
17 | NCI-H441 | 0.619
18 | PC-14 | 0.225
19 | LCLC-103H | 0.81
20 | NCI-H596 | 0.606
21 | NCI-H2126 | 0.933
22 | EMC-BAC-2 | 0.468
23 | NCI-H2085 | 0.788
24 | Calu-6 | 0.576
25 | HCC-366 | 0.349
26 | NCI-H1666 | 0.725
27 | NCI-H647 | 0.643
28 | LK-2 | 0.888
29 | NCI-H2087 | 0.739
30 | NCI-H358 | 0.632
31 | NCI-H2170 | 0.648

Row | Cell Line | relative viability
32 | H3255 | 0.545
33 | COR-L23 | 0.334
34 | COR-L 105 | 0.554
35 | IA-LM | 0.913
36 | LOU-NH91 | 0.934
37 | ChaGo-K-1 | 0.438
38 | NCI-H1793 | 0.946
39 | NCI-H2405 | 0.879
40 | HOP-62 | 0.575
41 | A549 | 0.328
42 | SK-MES-1 | 0.715
43 | SW 900 | 0.57
44 | NCI-H2009 | 0.844
45 | NCI-H520 | 0.329
46 | SW 1573 | 0.607
47 | NCI-H1299 | 0.957
48 | CAL-12T | 0.747
49 | NCI-H2228 | 0.848
50 | NCI-H2023 | 0.474
51 | NCI-H1648 | 0.906
52 | SK-LU-1 | 0.464
53 | NCI-H661 | 0.673

same assay, conditions: first compound 2.53 µM

Row | Cell Line | relative viability
54 | NCI-H522 | 0.636
55 | NCI-H2342 | 0.355
56 | NCI-H838 | 0.248
57 | NCI-H1650 | 0.787
58 | EBC-1 | 0.644
59 | NCI-H1703 | 0.277
60 | NCI-H1993 | 0.992
61 | NCI-H441 | 0.489
62 | PC-14 | 0.291
63 | LCLC-103H | 0.762
64 | NCI-H596 | 0.641
65 | NCI-H2126 | 0.855
66 | EMC-BAC-2 | 0.393
67 | NCI-H2085 | 0.738
68 | HCC-366 | 0.316
69 | NCI-H1666 | 0.824
70 | NCI-H647 | 0.231
71 | LK-2 | 0.661
72 | NCI-H2087 | 0.488
73 | NCI-H358 | 0.279
74 | NCI-H2170 | 0.44
75 | H3255 | 0.512
76 | COR-L23 | 0.246
77 | COR-L 105 | 0.59
78 | IA-LM | 0.986
79 | LOU-NH91 | 0.658
